Source: patent US9562914B2, “Microfluidic device for real-time clinical monitoring and quantitative assessment of whole blood coagulation” (President and Fellows of Harvard College, priority 2013, dated 2017)

System: whole human blood
Assay: whole blood clotting time in microfluidic coagulation device (infusion or pressure pump mode)
Assay type: cell-based
Details: microchannels coated with human collagen I at 100 μg/ml; device of FIG. 13A; uncoated PDMS 15-60 minutes
Method: As discussed below, in the test configuration, 2-5 ml of human whole blood was pumped through an infusion or pressure pump followed by an inline pressure sensor that connected to ports 120a, 120b of the microfluidic device 100 via appropriate medical grade tubing (e.g., 1.6 mm ID). In infusion mode, clot formation leads to an increase in pressure, whereas in constant pressure mode, the flow rate drops with respect to time. […] The characteristic constants of these models indicate clotting times at two stages—when the clot formation is accelerating and when the clot has completely occluded the channel. […] Fluorescence microscopy of fibrinogen and platelets allow real-time monitoring of fibrin formation and platelet aggregation simultaneously.
In the testing conducted with the microfluidic device 100 of FIG. 1, fresh human blood stored in a 5 ml syringe (slip-tip Plastipak, BD, Franklin Lakes, N.J.) was pushed via syringe pump (PHD Ultra CP, Harvard Apparatus, Holliston, Mass.) through an inline, disposable pressure sensor (PREPS-N-000, PendoTECH, Princeton, N.J.) followed by the PDMS device within 15 minutes of blood draw. […] In the test setup, the imaging device 130 used was a fluorescence imaging configured Carl Zeiss Axio 3 Observer microscope (10×, NA 0.3 objective), but other imaging devices may be readily used in accord with the present concepts. […]

Substance: human collagen I: human collagen I coated on the microchannels at a concentration of 100 μg/ml
- clotting time with collagen-coated microchannels: 2 to 20 min
